The target in assay [1] is T1, Fatty-acid amide hydrolase 1 (Homo sapiens) (UniProt O00519).
T1 sequence (whole entry): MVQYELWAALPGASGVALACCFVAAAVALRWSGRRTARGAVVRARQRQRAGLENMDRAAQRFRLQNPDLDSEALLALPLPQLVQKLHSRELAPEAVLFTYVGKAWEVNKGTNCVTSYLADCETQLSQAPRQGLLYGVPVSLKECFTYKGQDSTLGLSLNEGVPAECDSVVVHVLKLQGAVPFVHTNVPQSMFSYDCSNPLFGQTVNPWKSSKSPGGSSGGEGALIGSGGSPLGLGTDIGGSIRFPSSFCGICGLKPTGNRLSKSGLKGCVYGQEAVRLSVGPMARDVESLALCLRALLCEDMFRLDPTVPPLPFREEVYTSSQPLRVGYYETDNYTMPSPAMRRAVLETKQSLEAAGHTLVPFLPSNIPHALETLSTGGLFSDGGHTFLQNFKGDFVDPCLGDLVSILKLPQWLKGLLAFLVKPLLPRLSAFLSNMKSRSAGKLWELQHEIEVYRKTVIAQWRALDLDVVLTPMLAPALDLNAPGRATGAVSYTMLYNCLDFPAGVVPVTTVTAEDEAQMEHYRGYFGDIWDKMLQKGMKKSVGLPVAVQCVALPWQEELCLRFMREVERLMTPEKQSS
Description: Reversible inhibition of human recombinant FAAH overexpressed in African green monkey COS7 cells using […] as substrate assessed as recovery of enzyme activity at 20 x IC50 preincubated for 60 mins followed by 500 fold dilution measured after 10 mins by HPLC analysis. As to conditions: COS-7. The assay is classed as cell-based.

For assay [2], the target named is T1, Fatty-acid amide hydrolase 1 (Homo sapiens). The assay can be described thus: Inhibition of human recombinant FAAH overexpressed in African green monkey COS7 cells using [3H]-anandamide as substrate at 300 uM preincubated for 10 to 60 mins by liquid scintillation counting analysis. The assay is classed as cell-based. To be noted: COS-7.
For assay [3], the target named is T2, Fatty-acid amide hydrolase 1 (Homo sapiens, UniProt O00519).
T2 sequence (O00519 whole entry): T1 sequence (whole entry)
Description: Inhibition of human recombinant FAAH overexpressed in African green monkey COS7 cells using [3H]-anandamide as substrate preincubated for 10 mins before substrate addition measured after 10 mins by liquid scintillation counting analysis. In kind it is cell-based, COS-7. To be noted: for pIC50: read-out: IC50; for IC50: read-out: pIC50 (converted).

In assay [4] the target is T1, Fatty-acid amide hydrolase 1 (Homo sapiens). Description: Inhibition of human recombinant FAAH overexpressed in African green monkey COS7 cells using [3H]-anandamide as substrate at 30 uM preincubated for 10 to 60 mins by liquid scintillation counting analysis. As to conditions: COS-7.
The target of assay [5] is T3, Monoglyceride lipase (Homo sapiens, UniProt Q99685).
T3 sequence (Q99685 whole entry): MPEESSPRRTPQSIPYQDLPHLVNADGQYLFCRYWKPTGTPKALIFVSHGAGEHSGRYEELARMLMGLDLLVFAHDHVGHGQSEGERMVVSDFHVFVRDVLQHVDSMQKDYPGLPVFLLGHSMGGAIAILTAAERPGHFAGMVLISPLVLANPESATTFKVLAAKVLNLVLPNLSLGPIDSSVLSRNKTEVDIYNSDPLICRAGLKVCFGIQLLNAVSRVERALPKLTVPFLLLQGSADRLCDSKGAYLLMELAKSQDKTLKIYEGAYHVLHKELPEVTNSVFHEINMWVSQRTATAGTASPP
Description: Inhibition of human recombinant MAGL overexpressed in HEK cells using 2-AG as substrate preincubated for 10 mins before substrate addition measured after 10 mins by HPLC analysis. In kind it is cell-based, HEK293. As to conditions: read-out: IC50.

The target of assay [6] is T4, Lysophosphatidylserine lipase ABHD12 (Homo sapiens) (UniProt Q8N2K0).
T4 sequence (whole entry): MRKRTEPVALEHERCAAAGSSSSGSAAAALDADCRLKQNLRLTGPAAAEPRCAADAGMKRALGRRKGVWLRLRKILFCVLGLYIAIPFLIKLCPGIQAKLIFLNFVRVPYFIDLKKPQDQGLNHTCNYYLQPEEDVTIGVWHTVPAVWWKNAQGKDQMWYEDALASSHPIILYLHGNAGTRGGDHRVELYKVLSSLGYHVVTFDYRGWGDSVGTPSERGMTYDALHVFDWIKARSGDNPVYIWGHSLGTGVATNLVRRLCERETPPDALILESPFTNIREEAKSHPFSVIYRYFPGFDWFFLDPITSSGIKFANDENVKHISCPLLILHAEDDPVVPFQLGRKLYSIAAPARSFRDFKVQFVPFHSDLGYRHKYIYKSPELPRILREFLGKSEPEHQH
The assay can be described thus: Inhibition of human ABHD12 overexpressed in HEK293 cells assessed as 2-AG hydrolysis at 1 uM by fluorescent glycerol assay. The assay is classed as cell-based.

Assay [7] deals with T5, Fatty-acid amide hydrolase 1 (Rattus norvegicus, UniProt P97612).
T5 sequence (P97612 whole entry): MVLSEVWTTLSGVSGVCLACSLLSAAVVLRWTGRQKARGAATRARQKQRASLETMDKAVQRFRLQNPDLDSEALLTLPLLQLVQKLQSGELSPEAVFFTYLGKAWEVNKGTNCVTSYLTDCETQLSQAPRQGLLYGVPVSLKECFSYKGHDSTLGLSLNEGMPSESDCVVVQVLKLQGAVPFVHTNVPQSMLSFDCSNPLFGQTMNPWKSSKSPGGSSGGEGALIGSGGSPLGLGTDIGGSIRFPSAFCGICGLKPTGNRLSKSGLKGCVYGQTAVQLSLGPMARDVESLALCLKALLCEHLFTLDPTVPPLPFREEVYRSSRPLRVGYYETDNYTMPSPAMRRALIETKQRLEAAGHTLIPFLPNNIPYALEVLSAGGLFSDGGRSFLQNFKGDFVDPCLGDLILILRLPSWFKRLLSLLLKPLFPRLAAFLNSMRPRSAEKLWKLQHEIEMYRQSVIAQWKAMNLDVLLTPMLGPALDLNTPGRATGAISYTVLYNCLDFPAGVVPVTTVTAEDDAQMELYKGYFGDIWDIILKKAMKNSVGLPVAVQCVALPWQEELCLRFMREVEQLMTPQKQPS
Description: Inhibition of FAAH in rat RBL2H3 cells assessed as blockade of [3H]-anandamide uptake incubated for 15 mins prior to [3H]-anandamide addition measured after 10 mins by scintillation spectroscopic analysis. In kind it is cell-based, RBL-2H3.

The target of assay [8] is T6, Monoacylglycerol lipase ABHD6 (Homo sapiens) (UniProt Q9BV23).
T6 sequence (whole entry): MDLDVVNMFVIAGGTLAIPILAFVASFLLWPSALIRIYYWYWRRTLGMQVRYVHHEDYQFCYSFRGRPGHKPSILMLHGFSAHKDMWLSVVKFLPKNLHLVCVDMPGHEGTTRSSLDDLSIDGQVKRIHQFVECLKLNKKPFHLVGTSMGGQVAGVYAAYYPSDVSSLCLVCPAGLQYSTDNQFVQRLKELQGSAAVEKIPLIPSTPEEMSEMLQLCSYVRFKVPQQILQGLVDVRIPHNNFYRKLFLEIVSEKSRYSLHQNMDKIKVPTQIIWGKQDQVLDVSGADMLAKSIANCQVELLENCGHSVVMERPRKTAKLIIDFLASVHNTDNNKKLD
The assay can be described thus: Inhibition of human ABHD6 overexpressed in HEK293 cells assessed as 2-AG hydrolysis at 1 uM by fluorescent glycerol assay. In kind it is cell-based.

The target in assay [9] is T7, Fatty-acid amide hydrolase 1 (Rattus norvegicus) (UniProt P97612).
T7 sequence (whole entry): T5 sequence (P97612 whole entry)
Description: Inhibition of FAAH in rat RBL2H3 cells assessed as blockade of [3H]-anandamide uptake at 0.0001 to 1 uM incubated for 15 mins prior to [3H]-anandamide addition measured after 10 mins by scintillation spectroscopic analysis in presence of JJKK-048. The assay is classed as cell-based. To be noted: RBL-2H3.

The target of assay [10] is T7, Fatty-acid amide hydrolase 1 (Rattus norvegicus). The assay can be described thus: Inhibition of FAAH in rat RBL2H3 cells assessed as blockade of [3H]-anandamide uptake at 1 uM incubated for 15 mins prior to [3H]-anandamide addition measured after 10 mins by scintillation spectroscopic analysis. In kind it is cell-based. To be noted: RBL-2H3.
Assay [11] addresses T8, Fatty-acid amide hydrolase 1 (Mus musculus) (UniProt O08914).
T8 sequence (whole entry): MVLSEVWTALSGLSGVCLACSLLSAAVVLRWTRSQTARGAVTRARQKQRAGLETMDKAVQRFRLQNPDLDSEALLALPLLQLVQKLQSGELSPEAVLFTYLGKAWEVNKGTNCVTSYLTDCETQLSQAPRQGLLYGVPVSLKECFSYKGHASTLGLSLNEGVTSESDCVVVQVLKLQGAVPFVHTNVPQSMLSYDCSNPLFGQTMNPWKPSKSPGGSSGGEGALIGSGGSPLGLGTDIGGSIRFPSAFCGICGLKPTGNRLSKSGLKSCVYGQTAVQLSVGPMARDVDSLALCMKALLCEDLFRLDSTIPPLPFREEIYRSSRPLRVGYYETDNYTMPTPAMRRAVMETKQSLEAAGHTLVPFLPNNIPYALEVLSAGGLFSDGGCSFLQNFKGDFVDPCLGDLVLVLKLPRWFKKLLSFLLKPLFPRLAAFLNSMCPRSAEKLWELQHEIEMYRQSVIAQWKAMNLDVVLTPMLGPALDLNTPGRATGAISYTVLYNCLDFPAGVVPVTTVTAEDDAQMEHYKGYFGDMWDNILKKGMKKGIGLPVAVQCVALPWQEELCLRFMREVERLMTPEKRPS
To be noted: Brain, Membrane, 10 uM.
Description: Inhibition of TAMRA-FP-labeled FAAH in mouse brain membrane at 10 uM after 1 hr by fluorescent gel scanning assay

pIC50: −log10 of the molar value. The source made the active and inactive calls. No cut-off for these calls is given here.

The values that follow come from ChEMBL document CHEMBL3085700 (J Med Chem, 2013).

With `O=C(Nc1ccccc1)N1CCC(Cc2ccc3ccccc3n2)CC1`, the inhibition result in assay [1] was “inactive”. For the same compound, in assay [2], the inhibition entry was “Active”. Also, in assay [3], the pIC50 is 6.49 and the IC50 was 324 nM.
Regarding `CCCCCCCCCCCC(=O)c1nc2ncccc2o1`, the inhibition result in [1] was “Active”. The inhibition entry in [4] is “inactive”. In addition, in [3], the pIC50 is 7.77 and the IC50 is 16.6 nM.
On to `COc1nn(C(C)c2ccc(N(c3ccccc3)c3ccccc3)cc2)c(=O)o1` (racemic), for which the pIC50 in [5] was 6.20; in assay [7], 7.96; in assay [3], 6.92. The inhibition result in assay [6] and in [8] was “inactive” throughout. Moreover, the inhibition entry in assay [9] and in [10] was “Active” each time. The IC50 in assay [3] was 115 nM.
Regarding `O=C(Oc1ccc([N+](=O)[O-])cc1)N1CCN(Cc2cccc(Oc3ccccc3)c2)CC1`, the inhibition result in assay [11] was “Active”.

As a reminder, the pIC50 is −log10 of the IC50, conventionally taken in molar units.
